The record followed here is PubChem BioAssay AID977614 (Broad Institute, 2014).

Molecules are shown by their SMILES. Calls of active or inactive are those of the source.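 Rule for the calls: active = parasite count per well reduced by over 3 SD from the mean, with host cell number above 80% of untreated; inactive = the rest.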 Where only a bound is given, the exact number is not on record here.

The test system of this assay is L. donovani amastigotes in THP-1 macrophages, DAPI imaging, 72 h. The assay is described as follows: antileishmanial activity in infected macrophages – imaging, THP-1 host macrophages, single concentration (AID 977614).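 Note: signal is the parasite per host cell ratio from DAPI stained kinetoplasts and nuclei.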
With `CN1[C@H](CO)[C@@H]2c3ccccc3N(C(=O)Nc3cc(F)ccc3F)C[C@@H]21`, the AC50 is > 10 µM (inactive).

Consider `COCC(=O)NC[C@H]1[C@@H](c2ccccc2)[C@@H](CO)N1C(=O)c1ccccc1`, for which the AC50 is > 10 µM (inactive).

`COc1ccc(CN(C)C[C@@H]2OCc3cnnn3CCCC(=O)N([C@@H](C)CO)C[C@H]2C)cc1`: the AC50 is > 10 µM (inactive).

Regarding `CCC(=O)N(C)C[C@@H]1[C@@H](c2ccccc2)[C@H](CO)N1Cc1cccnc1`, the AC50 was > 10 µM (inactive).

As for `C/C=C/c1ccc([C@H]2[C@@H](CO)N(C(=O)CC)[C@H]2CN(C)Cc2cncnc2)cc1`, the AC50 was > 10 µM (inactive).

On to `CCC(=O)N1[C@@H](CO)[C@@H](c2ccccc2)[C@@H]1CN(CC)C(=O)c1cccc(F)c1`, for which the AC50 is > 10 µM (inactive).

`C[C@@H]1CN([C@@H](C)CO)C(=O)CCCn2cc(nn2)CO[C@@H]1CN(C)C(=O)c1ccc(N2CCN(C)CC2)cc1`: the AC50 was > 10 µM (inactive).

`C[C@H](CO)N1C[C@H](C)[C@H](CN(C)Cc2ccc(C(=O)Nc3ccccc3N)cc2)OCc2cnnn2CCCC1=O`: the AC50 is > 10 µM (inactive).

For the compound `O=C(c1ccccc1F)N1C[C@H]2[C@@H](c3ccccc31)[C@@H](CO)N2Cc1ccc2c(c1)OCO2`, the AC50 is > 10 µM (inactive).

Turning to `O=C(NC[C@@H]1[C@@H](c2ccccc2)[C@@H](CO)N1C(=O)C1CCC1)NC1CCCC1`, the AC50 is > 10 µM (inactive).

As to `C/C=C/c1ccc([C@H]2[C@@H](CNC(C)C)N(C(=O)c3ccccn3)[C@H]2CO)cc1`, the AC50 was > 10 µM (inactive).

Regarding `COCC(=O)N(C[C@H]1[C@H](c2ccccc2)[C@@H](CO)N1C(=O)NC(C)C)C(C)C`, the AC50 was > 10 µM (inactive).

As for `CCC(=O)N1C[C@@H]2[C@H](c3ccccc31)[C@H](CO)N2C(=O)CC1CC1`, the AC50 was > 10 µM (inactive).

For the compound `C[C@@H]1CN([C@H](C)CO)C(=O)CCCn2nncc2CO[C@H]1CN(C)C(=O)Nc1ccc(-c2cccs2)cc1`, the AC50 was > 10 µM (inactive).

For the compound `O=C(NC[C@H]1N[C@H](CO)[C@@H]1c1ccccc1)c1ccccc1F`, the AC50 is > 10 µM (inactive).

Consider `O=C(NC[C@@H]1[C@@H](c2ccccc2)[C@H](CO)N1Cc1cccnc1)c1ccccn1`, for which the AC50 was > 10 µM (inactive).

As for `C[C@H](CO)N1C[C@H](C)[C@@H](CN(C)S(=O)(=O)c2cn(C)cn2)OCc2cnnn2CCCC1=O`, the AC50 was > 10 µM (inactive).

Turning to `C[C@H]1CN([C@@H](C)CO)C(=O)CCCn2nncc2CO[C@H]1CN(C)CC1CCCCC1`, the AC50 was > 10 µM (inactive).

Consider `COCC(=O)N1C[C@@H]2[C@H](c3ccccc31)[C@@H](CO)N2Cc1cc(F)ccc1F`, for which the AC50 is > 10 µM (inactive).

Consider `C[C@H](CO)N1C[C@H](C)[C@@H](CN(C)Cc2cccc(C(F)(F)F)c2)OCc2cnnn2CCCC1=O`, for which the AC50 is > 10 µM (inactive).

On to `C[C@@H]1CN([C@H](C)CO)C(=O)CCCn2cc(nn2)CO[C@H]1CN(C)C(=O)Oc1ccc2ccccc2c1`, for which the AC50 was > 10 µM (inactive).

As for `CC(C)NC(=O)N1[C@H](CO)[C@@H](c2ccccc2)[C@H]1CN(C)C(=O)c1cccnc1`, the AC50 was > 10 µM (inactive).

On to `C[C@H](CO)N1C[C@H](C)[C@H](CN(C)C(=O)Oc2cccc3ccccc23)OCc2cnnn2CCCC1=O`, for which the AC50 was > 10 µM (inactive).

In the case of `C[C@H](CO)N1C[C@H](C)[C@H](CN(C)C(=O)c2ccc(N3CCN(C)CC3)cc2)OCc2cnnn2CCCC1=O`, the AC50 was > 10 µM (inactive).

Consider `C[C@H](CO)N1C[C@H](C)[C@@H](CN(C)C(=O)Nc2cccc(C(F)(F)F)c2)OCc2cn(nn2)CCCC1=O`, for which the AC50 is > 10 µM (inactive).

Consider `O=C(Nc1cccc(Cl)c1)N1C[C@@H]2[C@H](c3ccccc31)[C@@H](CO)N2Cc1cccnc1`, for which the AC50 is > 10 µM (inactive).

Take `CC(C)CN(C[C@H]1N[C@H](CO)[C@@H]1c1ccccc1)C(=O)C1CCCCC1`: the AC50 is > 10 µM (inactive).

`C[C@@H]1CN([C@@H](C)CO)C(=O)CCCn2nncc2CO[C@@H]1CN(C)C(=O)CCC(F)(F)F`: the AC50 was > 10 µM (inactive).

For the compound `CC(=O)N1[C@@H](CO)[C@@H](c2ccccc2)[C@@H]1CN(C)S(=O)(=O)c1ccccc1`, the AC50 is > 10 µM (inactive).

With `C[C@@H]1CN([C@H](C)CO)C(=O)CCCn2cc(nn2)CO[C@@H]1CN(C)S(=O)(=O)c1ccc(-n2cccn2)cc1`, the AC50 was > 10 µM (inactive).

Consider `CCS(=O)(=O)N1[C@H](CO)[C@H](c2ccccc2)[C@H]1CN(C(C)=O)C1CCCC1`, for which the AC50 was > 10 µM (inactive).

Consider `O=C(c1ccc2c(c1)OCO2)N1C[C@@H]2[C@H](c3ccccc31)[C@@H](CO)N2Cc1cccnc1`, for which the AC50 was > 10 µM (inactive).

In the case of `C[C@H]1CN([C@@H](C)CO)C(=O)CCCn2nncc2CO[C@H]1CN(C)Cc1cccc2c1OCCCO2`, the AC50 was > 10 µM (inactive).

For the compound `C[C@@H]1CN([C@H](C)CO)C(=O)CCCn2nncc2CO[C@@H]1CN(C)C(=O)Nc1ccnc(N2CCOCC2)c1`, the AC50 is > 10 µM (inactive).

As for `CCCC(=O)N1C[C@H]2[C@@H](c3ccccc31)[C@H](CO)N2C(=O)Nc1ccc(F)cc1`, the AC50 is > 10 µM (inactive).

With `COc1cccc(NC(=O)N2[C@H](CO)[C@H](c3ccccc3)[C@H]2CNCC(C)C)c1`, the AC50 was > 10 µM (inactive).

As for `COc1cccc(C(=O)N2C[C@@H]3[C@H](c4ccccc42)[C@@H](CO)N3C(=O)c2cccc(F)c2)c1`, the AC50 is > 10 µM (inactive).

For `CC(=O)N1[C@H](CO)[C@@H](c2ccccc2)[C@H]1CN(CC(C)C)C(=O)c1ccccn1`, the AC50 is > 10 µM (inactive).

Take `C[C@H]1CN([C@@H](C)CO)C(=O)CCCn2nncc2CO[C@@H]1CN(C)S(=O)(=O)c1cn(C)cn1`: the AC50 is > 10 µM (inactive).

As for `C[C@H]1CN([C@@H](C)CO)C(=O)CCCn2cc(nn2)CO[C@@H]1CN(C)Cc1ccccc1`, the AC50 is > 10 µM (inactive).

With `C/C=C/c1ccc([C@H]2[C@@H](CN(C)C(C)=O)N(C(=O)NC(C)C)[C@H]2CO)cc1`, the AC50 is > 10 µM (inactive).

With `CC(C)N(C[C@H]1[C@H](c2ccccc2)[C@@H](CO)N1S(C)(=O)=O)C(=O)CN(C)C`, the AC50 was > 10 µM (inactive).

With `C[C@@H]1CN([C@@H](C)CO)C(=O)CCCn2nncc2CO[C@@H]1CN(C)C(=O)Nc1ccnc(N2CCOCC2)c1`, the AC50 was > 10 µM (inactive).

For the compound `C[C@@H]1CN([C@@H](C)CO)C(=O)CCCn2cc(nn2)CO[C@@H]1CN(C)S(=O)(=O)c1ccc(-n2cccn2)cc1`, the AC50 is > 10 µM (inactive).

Take `CC(=O)N1[C@H](CO)[C@@H](c2ccccc2)[C@@H]1CNC(=O)CN1CCOCC1`: the AC50 was > 10 µM (inactive).

Consider `O=C(CC(F)(F)F)N1C[C@H]2[C@@H](c3ccccc31)[C@@H](CO)N2CC1CCOCC1`, for which the AC50 was > 10 µM (inactive).

For `C[C@H]1CN([C@@H](C)CO)C(=O)CCCn2cc(nn2)CO[C@@H]1CN(C)C(=O)Nc1ccc2c(c1)OCO2`, the AC50 was > 10 µM (inactive).

As for `Cc1cccc(S(=O)(=O)N2C[C@@H]3[C@H](c4ccccc42)[C@@H](CO)N3CC2CCCC2)c1`, the AC50 was > 10 µM (inactive).

Consider `C[C@H](CO)N1C[C@H](C)[C@H](CN(C)C(=O)c2ccc(N3CCN(C)CC3)cc2)OCc2cn(nn2)CCCC1=O`, for which the AC50 was > 10 µM (inactive).

For `C[C@H](CO)N1C[C@H](C)[C@@H](CN(C)C(=O)Nc2cccc(Oc3ccccn3)c2)OCc2cnnn2CCCC1=O`, the AC50 was > 10 µM (inactive).

On to `CC(=O)N1[C@H](CO)[C@H](c2ccccc2)[C@@H]1CN(C(=O)c1ccccc1F)C(C)C`, for which the AC50 is > 10 µM (inactive).

Take `Cc1noc(C)c1NC(=O)N(C)C[C@H]1OCc2cn(nn2)CCCC(=O)N([C@H](C)CO)C[C@@H]1C`: the AC50 is > 10 µM (inactive).

For the compound `O=C(C1CCCCC1)N1[C@@H]2CN(S(=O)(=O)c3ccccc3)c3ccccc3[C@@H]2[C@@H]1CO`, the AC50 was > 10 µM (inactive).

As for `C[C@H](CO)N1C[C@H](C)[C@H](CN(C)C(=O)Nc2ccnc(N3CCOCC3)c2)OCc2cnnn2CCCC1=O`, the AC50 was > 10 µM (inactive).

As to `C[C@H]1CN([C@@H](C)CO)C(=O)CCCn2nncc2CO[C@@H]1CN(C)C(=O)c1ccc(N2CCN(C)CC2)cc1`, the AC50 was > 10 µM (inactive).

As to `Cc1cccc(S(=O)(=O)N2C[C@@H]3[C@H](c4ccccc42)[C@H](CO)N3CC2CCCC2)c1`, the AC50 is > 10 µM (inactive).

As for `CC(C)NC(=O)N1[C@H](CNC(=O)CN(C)C)[C@@H](c2ccccc2)[C@@H]1CO`, the AC50 is > 10 µM (inactive).

For `C[C@@H]1CN([C@@H](C)CO)C(=O)CCCn2nncc2CO[C@@H]1CN(C)S(=O)(=O)c1ccc(Oc2ccccc2)nc1`, the AC50 is > 10 µM (inactive).

On to `C[C@@H]1CN([C@@H](C)CO)C(=O)CCCn2nncc2CO[C@@H]1CN(C)C(=O)c1ccc2ccn(C)c2c1`, for which the AC50 is > 10 µM (inactive).

Turning to `CN(C[C@H]1[C@@H](c2ccccc2)[C@@H](CO)N1Cc1ccccn1)S(C)(=O)=O`, the AC50 is > 10 µM (inactive).

Take `CCNC[C@@H]1[C@H](c2ccccc2)[C@H](CO)N1C(=O)Cc1ccccn1`: the AC50 was > 10 µM (inactive).

As for `CC(=O)N(Cc1cccc(F)c1)C[C@@H]1[C@@H](c2ccccc2)[C@@H](CO)N1C(C)=O`, the AC50 was > 10 µM (inactive).

For `COCC(=O)NC[C@@H]1[C@H](c2ccccc2)[C@@H](CO)N1C(=O)c1ccccc1`, the AC50 was > 10 µM (inactive).

With `O=C(Nc1cccc(F)c1)N1C[C@H]2[C@@H](c3ccccc31)[C@H](CO)N2C(=O)Cc1ccccn1`, the AC50 was > 10 µM (inactive).

As for `COc1ccccc1CN1[C@@H](CO)[C@@H]2c3ccccc3N(C(=O)C3CCOCC3)C[C@@H]21`, the AC50 was > 10 µM (inactive).

For the compound `C[C@H](CO)N1C[C@H](C)[C@@H](CN(C)S(=O)(=O)c2ccc(Oc3ccccc3)nc2)OCc2cnnn2CCCC1=O`, the AC50 was > 10 µM (inactive).

In the case of `C[C@@H]1CN([C@@H](C)CO)C(=O)CCCn2cc(nn2)CO[C@H]1CN(C)Cc1ccccc1`, the AC50 is > 10 µM (inactive).

Consider `Cc1noc(C)c1S(=O)(=O)N(C)C[C@H]1OCc2cn(nn2)CCCC(=O)N([C@H](C)CO)C[C@@H]1C`, for which the AC50 was > 10 µM (inactive).
